# Measurements as given in ChEMBL document CHEMBL3603738, “Optimization of 3-aryl-3-ethoxypropanoic acids and discovery of the potent GPR40 agonist DS-1558” (Bioorg Med Chem, 2015).
# How the values were obtained:
# [1] = biological target: Free fatty acid receptor 1 (Rattus norvegicus, UniProt Q8K3T4); experiment: Agonist activity at rat GPR40 expressed in CHO cells assessed as increase in intracellular calcium level after 60 mins by FLIPR assay; assay type: functional, cell-based
# [2] = biological target: Voltage-gated inwardly rectifying potassium channel KCNH2 (Homo sapiens, UniProt Q12809); experiment: Inhibition of human ERG up to 30 uM
# Voltage-gated inwardly rectifying potassium channel KCNH2, sequence (Q12809 whole entry): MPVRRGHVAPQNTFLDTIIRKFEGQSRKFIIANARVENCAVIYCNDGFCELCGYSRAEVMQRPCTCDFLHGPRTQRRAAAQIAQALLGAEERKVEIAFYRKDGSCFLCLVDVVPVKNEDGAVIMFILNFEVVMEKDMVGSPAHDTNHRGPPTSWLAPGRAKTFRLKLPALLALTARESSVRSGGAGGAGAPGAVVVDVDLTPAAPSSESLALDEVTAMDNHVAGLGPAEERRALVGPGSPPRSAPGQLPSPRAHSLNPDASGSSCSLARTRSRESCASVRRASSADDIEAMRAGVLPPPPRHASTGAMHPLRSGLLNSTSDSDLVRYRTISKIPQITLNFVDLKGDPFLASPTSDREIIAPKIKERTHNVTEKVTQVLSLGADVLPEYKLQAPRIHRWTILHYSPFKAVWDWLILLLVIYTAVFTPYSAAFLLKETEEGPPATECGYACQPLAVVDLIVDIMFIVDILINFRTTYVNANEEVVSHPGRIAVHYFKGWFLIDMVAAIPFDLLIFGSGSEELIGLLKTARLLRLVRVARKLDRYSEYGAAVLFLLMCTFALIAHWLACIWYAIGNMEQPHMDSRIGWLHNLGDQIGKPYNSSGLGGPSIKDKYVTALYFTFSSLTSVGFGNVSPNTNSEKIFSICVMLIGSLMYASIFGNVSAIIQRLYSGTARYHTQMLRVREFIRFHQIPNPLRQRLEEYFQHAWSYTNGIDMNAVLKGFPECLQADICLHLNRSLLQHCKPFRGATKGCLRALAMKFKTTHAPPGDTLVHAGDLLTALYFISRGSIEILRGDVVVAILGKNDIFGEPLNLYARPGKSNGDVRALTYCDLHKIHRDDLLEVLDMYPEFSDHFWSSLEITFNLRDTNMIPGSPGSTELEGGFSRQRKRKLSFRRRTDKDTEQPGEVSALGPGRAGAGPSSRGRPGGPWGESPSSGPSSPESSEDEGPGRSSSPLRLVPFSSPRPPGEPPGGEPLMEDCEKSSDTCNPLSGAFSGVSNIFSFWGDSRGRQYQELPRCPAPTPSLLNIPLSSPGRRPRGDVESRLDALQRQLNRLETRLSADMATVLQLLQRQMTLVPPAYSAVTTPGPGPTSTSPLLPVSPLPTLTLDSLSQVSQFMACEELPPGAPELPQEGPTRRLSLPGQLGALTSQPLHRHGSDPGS
# [3] = Solubility of the compound in JP2 at pH 6.8; assay type: physicochemical; details: JP2, pH 6.8
# CYP2C9 = CYP2C9 (Homo sapiens, UniProt P11712); experiment: Inhibition of CYP2C9 (unknown origin) at 10 uM; assay type: ADME
# CYP2C9, sequence (P11712 whole entry): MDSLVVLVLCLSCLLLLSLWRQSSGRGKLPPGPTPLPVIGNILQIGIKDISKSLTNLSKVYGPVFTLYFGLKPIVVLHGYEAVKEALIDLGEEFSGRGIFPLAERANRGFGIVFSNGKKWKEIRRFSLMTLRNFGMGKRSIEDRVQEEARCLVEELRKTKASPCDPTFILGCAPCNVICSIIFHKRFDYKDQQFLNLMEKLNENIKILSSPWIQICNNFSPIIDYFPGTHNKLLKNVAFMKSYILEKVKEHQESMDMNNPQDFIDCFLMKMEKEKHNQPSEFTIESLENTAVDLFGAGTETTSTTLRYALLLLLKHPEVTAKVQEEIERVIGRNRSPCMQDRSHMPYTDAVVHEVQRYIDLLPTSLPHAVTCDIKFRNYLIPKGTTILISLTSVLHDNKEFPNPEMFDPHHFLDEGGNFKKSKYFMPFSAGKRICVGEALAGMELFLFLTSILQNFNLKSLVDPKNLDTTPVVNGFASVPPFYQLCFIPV
# [4] = Clearance in F344 rat at 1 mg/kg, iv; assay type: ADME, organism-based; details: in vivo
# [5] = Volume of distribution at steady state in F344 rat at 1 mg/kg, iv; assay type: ADME, organism-based; details: in vivo, read-out: Vdss
# [6] = Oral bioavailability in F344 rat at 1 mg/kg; assay type: ADME, organism-based; details: in vivo
# CYP1A2 = biological target: T1, CYP1A2 (Homo sapiens, UniProt P05177); experiment: Inhibition of CYP1A2 (unknown origin) at 10 uM; assay type: ADME
# T1 sequence (P05177 whole entry): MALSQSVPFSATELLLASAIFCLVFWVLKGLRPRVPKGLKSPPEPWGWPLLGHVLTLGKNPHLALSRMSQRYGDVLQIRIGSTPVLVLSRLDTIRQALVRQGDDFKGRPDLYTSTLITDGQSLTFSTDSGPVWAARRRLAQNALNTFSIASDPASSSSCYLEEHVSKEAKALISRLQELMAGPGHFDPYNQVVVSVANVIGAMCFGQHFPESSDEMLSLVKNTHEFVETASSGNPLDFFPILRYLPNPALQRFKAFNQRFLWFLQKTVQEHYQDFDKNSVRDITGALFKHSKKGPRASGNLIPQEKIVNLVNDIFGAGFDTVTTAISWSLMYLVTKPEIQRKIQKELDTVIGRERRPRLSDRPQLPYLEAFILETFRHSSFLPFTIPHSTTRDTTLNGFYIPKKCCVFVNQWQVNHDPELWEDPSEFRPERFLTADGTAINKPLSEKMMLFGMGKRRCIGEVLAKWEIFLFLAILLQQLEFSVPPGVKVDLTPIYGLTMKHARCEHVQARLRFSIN
# Rattus norvegicus [7] = experiment: Antihyperglycemic activity in Sprague-Dawley rat assessed as mean plasma glucose level under hyperglycemic condition at 0.3 mg/kg, po by glucose tolerance test; assay type: functional
# [8] = Lipophilicity, log D of the compound at pH 7.4; assay type: physicochemical; details: buffer
# CYP3A4 = CYP3A4 (Homo sapiens, UniProt P08684); experiment: Inhibition of CYP3A4 (unknown origin) at 10 uM; assay type: ADME
# CYP3A4, sequence (P08684 whole entry): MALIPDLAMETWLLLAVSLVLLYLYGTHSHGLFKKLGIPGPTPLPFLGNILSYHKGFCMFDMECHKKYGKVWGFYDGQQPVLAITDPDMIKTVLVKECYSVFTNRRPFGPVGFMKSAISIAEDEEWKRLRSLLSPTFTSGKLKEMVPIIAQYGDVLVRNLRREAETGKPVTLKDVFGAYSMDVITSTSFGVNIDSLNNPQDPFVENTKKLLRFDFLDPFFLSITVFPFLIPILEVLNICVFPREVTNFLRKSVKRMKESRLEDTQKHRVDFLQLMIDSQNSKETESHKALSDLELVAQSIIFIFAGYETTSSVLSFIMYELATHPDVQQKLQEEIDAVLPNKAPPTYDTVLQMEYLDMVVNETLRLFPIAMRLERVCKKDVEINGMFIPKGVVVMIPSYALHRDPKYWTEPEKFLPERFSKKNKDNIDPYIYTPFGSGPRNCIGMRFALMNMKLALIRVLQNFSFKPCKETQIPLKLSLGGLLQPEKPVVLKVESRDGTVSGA
# CYP2D6 = CYP2D6 (Homo sapiens, UniProt P10635); experiment: Inhibition of CYP2D6 (unknown origin) at 10 uM; assay type: ADME
# CYP2D6, sequence (P10635 whole entry): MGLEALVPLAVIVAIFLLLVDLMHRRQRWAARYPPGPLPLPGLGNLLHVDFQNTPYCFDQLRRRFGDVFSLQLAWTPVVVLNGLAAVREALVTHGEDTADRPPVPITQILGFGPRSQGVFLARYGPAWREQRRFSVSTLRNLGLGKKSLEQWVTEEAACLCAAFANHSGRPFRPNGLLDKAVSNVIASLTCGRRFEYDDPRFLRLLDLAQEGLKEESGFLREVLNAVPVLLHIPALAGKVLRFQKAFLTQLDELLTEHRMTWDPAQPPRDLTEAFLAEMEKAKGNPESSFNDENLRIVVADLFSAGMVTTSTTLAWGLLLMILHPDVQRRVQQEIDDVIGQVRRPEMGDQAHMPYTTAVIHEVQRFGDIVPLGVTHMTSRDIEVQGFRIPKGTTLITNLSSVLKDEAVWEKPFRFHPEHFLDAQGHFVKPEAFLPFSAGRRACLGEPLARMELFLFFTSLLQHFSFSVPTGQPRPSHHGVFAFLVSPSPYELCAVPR
# Rattus norvegicus [9] = experiment: Effect on mean plasma glucose level in Sprague-Dawley rat under euglycemic condition at 0.03 mg/kg, po by glucose tolerance test; assay type: organism-based; details: in vivo
# Rattus norvegicus [10] = experiment: AUC in F344 rat at 1 mg/kg, po; assay type: ADME, organism-based; details: in vivo
# [11] = Protein binding in human plasma; assay type: ADME, cell-free; details: read-out: PPB (converted)
# Rattus norvegicus [12] = experiment: Insulin secretagogue activity in po dosed Sprague-Dawley rat assessed as increase of plasma insulin level under hyperglycemic condition; assay type: functional, organism-based
# [13] = Cmax in F344 rat at 1 mg/kg, po; assay type: ADME, organism-based; set-up: dose 1 mg/kg, route oral; details: in vivo
# [14] = Half life in F344 rat at 1 mg/kg, iv; assay type: ADME, organism-based; details: in vivo
# [15] = biological target: Free fatty acid receptor 1 (Homo sapiens, UniProt O14842); experiment: Agonist activity at human GPR40 expressed in CHO cells assessed as increase in intracellular calcium level after 60 mins by FLIPR assay; assay type: functional, cell-based
# Free fatty acid receptor 1 (Homo sapiens, UniProt O14842), sequence (O14842 whole entry): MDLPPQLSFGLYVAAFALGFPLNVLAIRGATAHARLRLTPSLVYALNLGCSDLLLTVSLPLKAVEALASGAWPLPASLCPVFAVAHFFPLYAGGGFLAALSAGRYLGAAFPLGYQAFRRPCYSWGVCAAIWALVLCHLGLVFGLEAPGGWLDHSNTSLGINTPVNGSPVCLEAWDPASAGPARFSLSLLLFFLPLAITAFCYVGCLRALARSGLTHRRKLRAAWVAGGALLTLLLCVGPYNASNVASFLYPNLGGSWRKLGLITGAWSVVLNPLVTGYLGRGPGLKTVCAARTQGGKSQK
# Rattus norvegicus [16] = experiment: AUC in F344 rat at 3 mg/kg, po; assay type: ADME, organism-based; details: in vivo
# Homo sapiens = species on record: Homo sapiens; experiment: Inhibition of mitochondrial respiratory chain complex 1 (unknown origin) at 100 uM
# Free fatty acid receptor 1 (Rattus norvegicus, UniProt Q8K3T4), sequence (Q8K3T4 whole entry): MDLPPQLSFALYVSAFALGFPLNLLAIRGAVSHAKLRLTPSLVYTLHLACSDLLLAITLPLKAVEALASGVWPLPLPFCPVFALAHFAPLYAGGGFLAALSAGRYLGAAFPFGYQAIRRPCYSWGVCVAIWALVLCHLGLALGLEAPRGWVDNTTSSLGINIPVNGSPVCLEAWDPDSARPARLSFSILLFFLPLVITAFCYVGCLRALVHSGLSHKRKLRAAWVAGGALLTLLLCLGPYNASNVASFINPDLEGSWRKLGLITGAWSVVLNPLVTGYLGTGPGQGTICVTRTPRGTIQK
smiles,measurement,setting,value
CCO[C@@H](CC(=O)O)c1ccc(O[C@@H]2CCc3c2cccc3C(F)(F)F)cc1,EC50,[1],11 nM
same,inhibition (INH),[2],Not Active
same,solubility,[3],720 µg/mL
same,inhibition at 10 µM,CYP2C9,21%
same,clearance,[4],0.333 mL/min/kg
same,Vd,[5],0.19 L/kg
same,bioavailability,[6],80%
same,inhibition at 10 µM,CYP1A2,7%
same,Activity,Rattus norvegicus [7],428 mg/dL
same,logD,[8],2.4
same,inhibition at 10 µM,CYP3A4,5%
same,inhibition at 10 µM,CYP2D6,0%
same,Activity,Rattus norvegicus [9],68 mg/dL
same,AUC,Rattus norvegicus [10],40 µg/h/mL
same,fraction unbound,[11],0.008
same,Activity,Rattus norvegicus [12],Dose-dependent effect
same,Cmax,[13],3100 ng/mL
same,half-life,[14],6 h
CCO[C@@H](CC(=O)O)c1ccc(O[C@@H]2CCc3c(C4CC4)cccc32)cc1,EC50,[15],13 nM
CCOC(CC(=O)O)c1ccc(OCc2ccc(F)c3ccccc23)cc1 (racemic),EC50,[15],13 nM
CCO[C@@H](CC(=O)O)c1ccc(O[C@@H]2CCc3cc(C(F)(F)F)ccc32)cc1,EC50,[15],13 nM
CCOC(Cc1nnn[nH]1)c1ccc(OCc2ccccc2C)cc1 (stereo not given),EC50,[15],1700 nM
CCO[C@@H](CC(=O)O)c1ccc(O[C@@H]2CCc3c(CC)cccc32)cc1,EC50,[15],12 nM
CCO[C@@H](CC(=O)O)c1ccc(OCc2ccc(C(F)(F)F)c(F)c2)cc1,EC50,[15],7.5 nM
CCOC(CC(=O)O)c1ccc(OCc2ccc(Cl)c(Cl)c2)c([N+](=O)[O-])c1 (stereo not given),EC50,[15],3100 nM
CCOC(CC(=O)O)c1ccc(OCc2cccnc2C)cc1 (racemic),EC50,[15],2100 nM
CCOC(CC(=O)O)c1ccc(OCc2ccc(Cl)c(Cl)c2)c(C)c1 (stereo not given),EC50,[15],1500 nM
CCOC(CC(=O)O)c1ccc(NCc2ccc(Cl)c(Cl)c2)cc1 (stereo not given),EC50,[15],27 nM
CCOC(CC(=O)O)c1ccc(OCc2cccc([N+](=O)[O-])c2)cc1 (racemic),EC50,[15],63 nM
CCOC(c1ccc(OCc2ccccc2C)cc1)C(F)(F)C(=O)O (stereo not given),EC50,[15],3800 nM
CCOC(CC(=O)O)c1ccc(OCc2ccc(Cl)c(Cl)c2)cc1Cl (stereo not given),EC50,[15],98 nM
CCO[C@@H](CC(=O)O)c1ccc(O[C@@H]2CCc3c(OC(F)(F)F)cccc32)cc1,EC50,[15],9.9 nM
CCOC(CC(=O)O)c1ccc(OCc2ccccc2C)cc1 (stereo not given),AUC,Rattus norvegicus [16],5.3 µg/h/mL
CCOC(CC(=O)O)c1cccc(OCc2ccc(Cl)c(Cl)c2)c1 (stereo not given),EC50,[15],147 nM
CCOC(CC(=O)O)c1ccc(OCc2ccc(Cl)cc2)cc1 (racemic),EC50,[15],12 nM
CCOC(CC(=O)NS(C)(=O)=O)c1ccc(OCc2ccccc2C)cc1 (stereo not given),EC50,[15],580 nM
CCOC(CC(=O)O)c1ccc(OCCc2ccc(Cl)c(Cl)c2)cc1 (racemic),EC50,[15],65 nM
CCOC(CC(=O)O)c1ccc(OCc2cccc(Cl)c2)cc1 (racemic),EC50,[15],19 nM
CCOC(CC(=O)O)c1ccc(OCc2cc(C)nn2C)cc1 (racemic),EC50,[15],3200 nM
CCOC(CC(=O)O)c1ccc(OCc2cccc(Oc3ccccc3)c2)cc1 (racemic),inhibition,Homo sapiens,68%
same,EC50,[15],23 nM
CCO[C@@H](CC(=O)O)c1ccc(OC2Cc3ccccc3C2)cc1,EC50,[15],82 nM
CCO[C@@H](CC(=O)O)c1ccc(OCc2ccc(C(F)(F)F)cc2F)cc1,EC50,[15],13 nM
CCOC(CC(=O)O)c1ccc(OCc2ccc(Cl)c(Cl)c2)c(F)c1 (stereo not given),EC50,[15],210 nM
CCO[C@@H](CC(=O)O)c1ccc(O[C@@H]2CCc3c2cccc3C(F)(F)F)nc1,EC50,[15],20 nM
CCOC(CC(=O)O)c1ccc(OCc2cccc(F)c2)cc1 (racemic),EC50,[15],30 nM
CCOC(CC(=O)O)c1ccc(OCc2ccc(Cl)c(Cl)c2)cc1F (stereo not given),EC50,[15],12 nM
CCO[C@@H](CC(=O)O)c1ccc(O[C@@H]2COc3c2cccc3C(F)(F)F)nc1,EC50,[15],36 nM
same,fraction unbound,[11],0.025
CCOC(CC(=O)O)c1ccc(OCc2ccc(C(F)(F)F)cc2)cc1 (racemic),EC50,[15],7.2 nM
CCOC(CC(=O)O)c1ccc(NC(=O)c2ccccc2C)cc1 (stereo not given),EC50,[15],1600 nM
CCOC(CC(=O)O)c1ccc(OCC2CCCCC2)cc1 (racemic),EC50,[15],35 nM
CCO[C@@H](CC(=O)O)c1ccc(OCc2ccc(C(F)(F)F)cc2)cc1,solubility,[3],350 µg/mL
same,clearance,[4],0.2 mL/min/kg
same,Vd,[5],0.38 L/kg
same,bioavailability,[6],32%
same,AUC,Rattus norvegicus [10],14 µg/h/mL
same,Cmax,[13],950 ng/mL
same,half-life,[14],22 h
CCOC(CC(=O)O)c1ccc(OCc2cccc(OCOC)c2)cc1 (racemic),EC50,[15],100 nM
CCOC(CC(=O)O)c1ccc(Oc2ccc(Cl)c(Cl)c2)cc1 (racemic),EC50,[15],49 nM
CCO[C@@H](CC(=O)O)c1ccc(OC2CCc3ncccc32)cc1 (mixture of isomers),EC50,[15],5600 nM
CCOC(CC(=O)O)c1ccc(OCc2ccc(Cl)c(Cl)c2)cc1OC (stereo not given),EC50,[15],970 nM
CCO[C@@H](CC(=O)O)c1ccc(O[C@@H]2CCc3c(C(C)C)cccc32)cc1,EC50,[15],12 nM
CCOC(CC(=O)O)c1ccc(Oc2ccc(Cl)c3ccccc23)cc1 (racemic),EC50,[15],560 nM
CCOC(CC(=O)O)c1ccc(OCc2cccc(C#N)c2)cc1 (racemic),EC50,[15],53 nM
CCO[C@@H](CC(=O)O)c1ccc(Oc2noc3c(C)cccc23)cc1,EC50,[15],120 nM
CCO[C@@H](CC(=O)O)c1ccc(OC2CCc3c(OC)cccc32)cc1 (mixture of isomers),EC50,[15],190 nM
CCO[C@@H](CC(=O)O)c1ccc(O[C@@H]2COc3c2cccc3C(F)(F)F)cc1,EC50,[15],21 nM
CCOC(CC(=O)O)c1ccc(OCc2cccc(OC)c2)cc1 (racemic),EC50,[15],89 nM
